Patent US20230406831A1, “COMPOUNDS AND METHODS OF INHIBITING BACTERIAL CHAPERONIN SYSTEMS” (THE TRUSTEES OF INDIANA UNIVERSITY, priority 2020, published 2023)
Like-named read-outs stand apart in the source and are kept apart here.

Experiments:
[1] = test system: S. aureus; assay: S. aureus bacterial proliferation assay; assay type: cell-based; settings: cation adjusted BHI media, OD600 at 6-8 h; for EC50: Staphylococcus aureus, read-out: S. aureus Proliferation EC50
Description: Evaluation of compounds for inhibition of bacterial cell proliferation.
Growth Media: S. aureus bacteria were grown in Brain Heart Infusion (BHI) broth/agar (Becton, Dickinson and Company). All liquid cultures were grown in BHI media supplemented with 25 mg/L Ca^2+ and 12.5 mg/L Mg^2+ to mimic free physiological concentrations of these cations. A 10 mg/mL Ca^2+ stock solution was prepared by dissolving 3.68 g of CaCl2·2H^2O in 100 mL of deionized water, and a 10 mg/mL Mg^2+ stock solution was prepared by dissolving 8.36 g of […] in 100 mL deionized water. Both stock solutions were filter-sterilized using 0.2 μm pore size cellulose-acetate filters. 2.5 mL of the sterile 10 mg/mL Ca^2+ stock and 1.25 mL of the sterile 10 mg/mL Mg^2+ stock solutions were added per 1 L of autoclaved BHI medium to obtain 25 mg/L Ca^2+ and 12.5 mg/L Mg^2+ ions, respectively.
General Assay Protocol: Stock bacterial cultures were streaked onto BHI agar plates and grown overnight at 37° C. Fresh aliquots of broth were inoculated with single bacterial colonies and the cultures were grown overnight at 37° C. with shaking (240 rpm) in cation adjusted BHI media. The following morning, the overnight cultures were sub-cultured (1:5 dilution) into fresh aliquots of cation adjusted BHI media and grown at 37° C. for 1-2 hours with shaking. After 2 h, cultures were diluted into fresh media to achieve final OD600 readings of 0.017. Aliquots of these diluted cultures (30 μL) were added to clear, flat-bottom, 384-well polystyrene plates that were stamped with 0.5 μL of test compounds in 20 μL media. Compounds were evaluated in dose-response format where the inhibitor concentration range during the proliferation assay was 100 μM to 46 nM (3-fold dilution series). Plates were sealed with “Breathe Easy” oxygen permeable membranes (Diversified Biotech) and left to incubate at 37° C. without shaking (stagnant assay). OD600 nm readings were taken generally at 6-8 h, when bacteria had reached log-phase growth. A second set of baseline control plates were prepared analogously, but without any bacteria added, to correct for possible compound absorbance and/or precipitation. Plates were then read at 600 nm using a Molecular Devices SpectraMax Plus384 microplate reader. EC50 values for the test compounds were obtained by plotting the OD600 results in GraphPad Prism and analyzing by non-linear regression using the log(inhibitor) vs. response (variable slope) equation. For results, see Tables 1, 2, and 3.

[2] = target: T1, GroEL/ES (Escherichia coli, UniProt P0A6F5); assay: GroEL/ES-mediated dMDH refolding assay; assay type: biochemical, E. coli
T1 construct: made in house; host or cells: GroEL in E. coli DH5a; GroES in E. coli BL21 (DE3)
Description: (§1) Evaluation of compounds ability to inhibit GroEL/ES and HSP60/10-mediated dMDH refolding assays.
(§2) Reagent preparation: For these assays, four primary reagent stocks were prepared: 1) GroEL/ES-dMDH or HSP60/10-dMDH binary complex stock; 2) ATP initiation stock; 3) EDTA quench stock; 4) MDH enzymatic assay stock. Denatured MDH (dMDH) was prepared by 2-fold dilution of MDH (5 mg/ml, soluble pig heart MDH from Roche, product #10127248001) with denaturant buffer (7 M guanidine-HCl, 200 mM Tris, pH 7.4, and 50 mM DTT). MDH was completely denatured by incubating at room temperature for 45 min. The binary complex solutions were prepared by slowly adding the dMDH stock to a stirring stock with GroEL (or HSP60) in folding buffer (50 mM Tris-HCl, pH 7.4, 50 mM KCl, 10 mM MglC2, and 1 mM DTT), followed by addition of GroES (or HSP10). The binary complex stocks were prepared immediately prior to dispensing into the assay plates and had final protein concentrations of 83.3 nM GroEL (Mr 800 kDa) or HSP60 (Mr 400 kDa), 100 nM GroES or HSP10 (Mr 70 kDa), and 20 nM dMDH in folding buffer. For the ATP initiation stock, ATP solid was diluted into folding buffer to a final concentration of 2.5 mM. Quench solution contained 600 mM EDTA (pH 8.0). The MDH enzymatic assay stock consisted of 20 mM sodium mesoxalate and 2.4 mM NADH in reaction buffer (50 mM Tris-HCl, pH 7.4, 50 mM KC1, and 1 mM DTT).
(§3) Assay Protocol: First, 30 μL aliquots of the GroEL/ES-dMDH or HSP60/10-dMDH binary complex stocks were dispensed into clear, 384-well polystyrene plates. Next, 0.5 μL of the compound stocks (10 mM to 4.6 μM, 3-fold dilutions series in DMSO) were added by pin-transfer (V&P Scientific). The chaperonin-mediated refolding cycles were initiated by addition of 20 IA of ATP stock (reagent concentrations during refolding cycle: 50 nM GroEL or HSP60, 60 nM GroES or HSP10, 12 nM dMDH, 1 mM ATP, and compounds of 100 μM to 46 nM, 3-fold dilution series). The refolding reactions were incubated at 37° C. The incubation time was determined from refolding time-course control experiments until they reached ˜90% completion of refolding cycle — generally ˜20-40 min for GroEL/ES, and ˜40-60 min for HSP60/10). Next, the assay was quenched by addition of 10 μL of the EDTA to final concentration of 100 mM. […] A340 nm measurements were recorded at 0.5 minutes (start point) and at successive time points until the amount of NADH consumed reached ˜90% (end point, generally between 20-35 minutes). The differences between the start and end point A340 values were used to calculate the % inhibition of the GroEL/ES or HSP60/10 machinery by the compounds. IC50 values for the test compounds were obtained by plotting the % inhibition results in GraphPad Prism 6 and analyzing by non-linear regression using the log (inhibitor) vs. response (variable slope) equation. Results presented represent the averages of IC50 values obtained from at least quadriplicate (duplicate of duplicate) replicates. For results, see Tables 1, 2, and 3.

[3] = target: T2, HSP60/10 (Homo sapiens, UniProt P10809); assay: HSP60/10-mediated dMDH refolding assay; assay type: biochemical; settings: 37° C., 1 mM ATP, read-out: Biochemical Assay IC50 HSP60/10-dMDH Refolding
T2 construct: octa-Histidine (His8) tag, TEV-cleavable (N, cleaved yes); made in house; host or cells: HSP60 in Rosetta 2 (DE3) E. coli; HSP10 in Rosetta 2 (DE3) pLysS
Description: as §1, §2, §3

T1 sequence (P0A6F5 2-548): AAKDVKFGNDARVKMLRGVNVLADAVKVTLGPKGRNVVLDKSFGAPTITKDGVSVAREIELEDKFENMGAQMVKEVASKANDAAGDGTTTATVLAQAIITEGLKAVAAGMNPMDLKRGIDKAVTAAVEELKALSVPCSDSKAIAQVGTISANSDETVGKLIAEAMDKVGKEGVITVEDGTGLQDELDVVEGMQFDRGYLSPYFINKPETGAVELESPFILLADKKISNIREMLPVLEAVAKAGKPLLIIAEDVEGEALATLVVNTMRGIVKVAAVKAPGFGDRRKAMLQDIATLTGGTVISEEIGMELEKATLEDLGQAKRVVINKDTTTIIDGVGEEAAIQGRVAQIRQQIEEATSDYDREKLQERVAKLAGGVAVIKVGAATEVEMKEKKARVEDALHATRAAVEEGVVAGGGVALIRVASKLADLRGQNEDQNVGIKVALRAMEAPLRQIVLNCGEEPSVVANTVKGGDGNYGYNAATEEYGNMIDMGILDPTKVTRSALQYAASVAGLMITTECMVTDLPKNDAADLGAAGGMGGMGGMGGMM
T2 sequence (P10809 27-573): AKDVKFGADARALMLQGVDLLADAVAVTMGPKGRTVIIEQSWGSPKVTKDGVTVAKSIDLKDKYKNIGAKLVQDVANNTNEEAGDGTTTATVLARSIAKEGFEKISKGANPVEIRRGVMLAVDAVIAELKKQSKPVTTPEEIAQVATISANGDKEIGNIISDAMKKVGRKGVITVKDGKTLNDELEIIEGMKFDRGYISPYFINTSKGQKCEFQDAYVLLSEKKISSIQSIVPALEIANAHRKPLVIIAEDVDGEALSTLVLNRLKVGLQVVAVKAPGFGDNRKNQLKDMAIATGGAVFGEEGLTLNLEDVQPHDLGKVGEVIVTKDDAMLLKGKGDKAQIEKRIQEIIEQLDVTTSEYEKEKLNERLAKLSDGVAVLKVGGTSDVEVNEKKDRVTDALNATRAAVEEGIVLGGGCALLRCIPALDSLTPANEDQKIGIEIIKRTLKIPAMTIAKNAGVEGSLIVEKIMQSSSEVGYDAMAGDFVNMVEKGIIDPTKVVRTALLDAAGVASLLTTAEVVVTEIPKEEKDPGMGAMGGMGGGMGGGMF

Structure (SMILES) | EC50 ([1]; Table 3) | IC50 [2] | IC50 ([3]; Table 3) | IC50 ([3]; Table 2) | further results
COc1ccc(Cl)cc1C(=O)Nc1ccc(NC(C)=O)cc1 [Compound 104, N-(4-acetamidophenyl)-5-chloro-2-methoxybenzamide] | > 100 µM | > 100 µM | > 100 µM | – | –
Cc1cc(C(C#N)c2ccc(Cl)cc2)c(Cl)cc1NC(=O)c1ccccc1[N+](=O)[O-] (centres unmarked) [Compound 67, N-(5-chloro-4-((4-chlorophenyl)(cyano)methyl)-2-methylphenyl)-2-nitrobenzamide] | – | 43 µM | – | > 100 µM | S. aureus Proliferation EC50 ([1]; Table 2): > 100 µM
COc1ccc(NC(=O)c2cc(Cl)ccc2OC)cc1 [Compound 112, 5-chloro-2-methoxy-N-(4-methoxyphenyl)benzamide] | > 100 µM | > 100 µM | > 100 µM | – | –
Cc1cc(C(C#N)c2ccc(Cl)cc2)c(Cl)cc1NC(=O)c1ccc(Br)cc1 (centres unmarked) [Compound 75, 4-bromo-N-(5-chloro-4-((4-chlorophenyl)(cyano)methyl)-2-methylphenyl)benzamide] | – | 58 µM | – | > 100 µM | S. aureus Proliferation EC50 ([1]; Table 2): > 100 µM
COC(=O)c1ccc(NC(=O)c2cc(Cl)ccc2O)cc1 [Compound 107, methyl 4-(5-chloro-2-hydroxybenzamido)benzoate] | 0.94 µM | 83 µM | > 100 µM | – | –
N#CC(c1ccccc1)c1ccc(NC(=O)c2cc(Cl)ccc2O)cc1 (centres unmarked) [Compound 85, 5-chloro-N-(4-(cyano(phenyl)methyl)phenyl)-2-hydroxybenzamide] | 1.1 µM | 56 µM | 75 µM | – | –
Cc1cc(C(C#N)c2ccc(Cl)cc2)c(Cl)cc1NC(=O)c1cccc(F)c1 (centres unmarked) [Compound 80, N-(5-chloro-4-((4-chlorophenyl)(cyano)methyl)-2-methylphenyl)-3-fluorobenzamide] | – | 78 µM | – | > 100 µM | S. aureus Proliferation EC50 ([1]; Table 2): > 100 µM
CC(=O)Nc1ccc(NC(=O)c2cc(Cl)ccc2O)cc1 [Compound 105, N-(4-acetamidophenyl)-5-chloro-2-hydroxybenzamide] | > 100 µM | > 100 µM | > 100 µM | – | –
O=C(Nc1ccc([N+](=O)[O-])cc1Cl)c1cc(Cl)ccc1O [Niclosamide, reference compound] | – | > 100 µM | > 100 µM | – | EC50 ([1]; Table 1): 0.074 µM; IC50 ([2]; read-out: Biochemical Assay IC50 GroEL/ES-dMDH Refolding, Table 3, 37° C., 1 mM ATP): > 100 µM; IC50 ([3]; Table 1): > 100 µM
O=C(Nc1cc(Cl)cc(Cl)c1O)c1c(O)c(Cl)cc(Cl)c1Cl [Oxyclosanide, reference compound] | – | 45 µM | – | – | EC50 ([1]; Table 1): 0.52 µM; IC50 ([3]; Table 1): 28 µM
O=C(Nc1ccc(Sc2nc3ccccc3s2)c(Cl)c1)c1cc(Cl)ccc1O [Compound 95, N-(4-(benzo[d]thiazol-2-ylthio)-3-chlorophenyl)-5-chloro-2-hydroxybenzamide] | 0.14 µM | 21 µM | 39 µM | – | –
Cc1cc(C(C#N)c2ccc(Cl)cc2)c(Cl)cc1NC(=O)c1cc(Br)ccc1O (centres unmarked) [Compound 50, 5-bromo-N-(5-chloro-4-((4-chlorophenyl)(cyano)methyl)-2-methylphenyl)-2-hydroxybenzamide] | – | 23 µM | – | 20 µM | EC50 ([1]; Table 2): 0.11 µM
O=C(Nc1ccc(OCc2ccccc2)cc1)c1cc(Cl)ccc1O [Compound 103, N-(4-(benzyloxy)phenyl)-5-chloro-2-hydroxybenzamide] | > 100 µM | 44 µM | > 100 µM | – | –
COc1ccc(Cl)cc1C(=O)Nc1ccc(CCc2ccccc2)cc1 [Compound 100, 5-chloro-2-methoxy-N-(4-phenethylphenyl)benzamide] | > 100 µM | > 100 µM | > 100 µM | – | –
O=C(Nc1ncc([N+](=O)[O-])s1)c1ccccc1O [Tizoxanide, reference compound] | – | > 100 µM | – | – | EC50 ([1]; Table 1): 9.7 µM; IC50 ([3]; Table 1): > 100 µM
COc1ccc(NC(=O)c2cc(Cl)ccc2O)cc1 [Compound 113, 5-chloro-2-hydroxy-N-(4-methoxyphenyl)benzamide] | 31 µM | > 100 µM | > 100 µM | – | –
Cc1cc(C(C#N)c2ccc(Cl)cc2)c(Cl)cc1NC(=O)c1cc(Br)cc(Br)c1O (centres unmarked) [Compound 46, 3,5-dibromo-N-(5-chloro-4-((4-chlorophenyl)(cyano)methyl)-2-methylphenyl)-2-hydroxybenzamide] | – | 1.9 µM | – | 2.4 µM | EC50 ([1]; Table 2): 0.22 µM
Cc1cc(C(C#N)c2ccc(Cl)cc2)c(Cl)cc1NC(=O)c1cccc([N+](=O)[O-])c1 (centres unmarked) [Compound 68, N-(5-chloro-4-((4-chlorophenyl)(cyano)methyl)-2-methylphenyl)-3-nitrobenzamide] | – | 43 µM | – | > 100 µM | S. aureus Proliferation EC50 ([1]; Table 2): > 100 µM
Cc1cc(C(C#N)c2ccc(Cl)cc2)c(Cl)cc1NC(=O)c1cccc(Br)c1O (centres unmarked) [Compound 48, 3-bromo-N-(5-chloro-4-((4-chlorophenyl)(cyano)methyl)-2-methylphenyl)-2-hydroxybenzamide] | – | 12 µM | – | 7.7 µM | EC50 ([1]; Table 2): 0.58 µM
Cc1cc(C(C#N)c2ccc(Cl)cc2)c(Cl)cc1NC(=O)c1ccccc1F (centres unmarked) [Compound 79, N-(5-chloro-4-((4-chlorophenyl)(cyano)methyl)-2-methylphenyl)-2-fluorobenzamide] | – | 89 µM | – | > 100 µM | S. aureus Proliferation EC50 ([1]; Table 2): > 100 µM
